Literature values as cited in patent publication US6746697B2, “Composition containing Heliopsis longipes root extract and oral carrier” (Phytos, Inc., priority 2000, dated 2004).

Key:
[1] = system: certain microorganisms (Gram positive and Gram negative bacteria); conditions: purified affinin from ethanol extract; toxicity varying for Gram positive and Gram negative bacteria
[2] = system: mice; conditions: orally to mice

## C/C=C/C=C\CC/C=C/C(=O)NCC(C)C [affinin, N-isobutyl-2E, 6Z, 8E-decatrienamide]
[1]
  toxicity to microorganisms: toxic to certain microorganisms
[2]; aqueous solution, doses from 2.5 to 10.0 mg/kg
  analgesic effect: analgesic effect
[2]; highest dose (10.0 mg/kg)
  deaths: two out of five deaths
  effect on normal motor activity: severe depression of normal motor activity
